Reference: patent US20060030497A1, “Conveyor track or container lubricant compositions” (priority 2004, published 2006)

Experiment: Spreading test: drop on a polybutene surface in a Petri dish, compared with water
Format: physicochemical
Settings: water containing 0.1% by weight of spreading agent; drop of 50μ on polybutene; pure water about 10 mm
From the text: Compositions of the present invention have the advantage that they spread more efficiently and completely on polymeric conveyor surfaces than previously known conveyor lubricant compositions containing polydimethylsiloxane. […] When the lubricant is applied to a polymeric conveyor surface, the conveyor surface soon becomes very hydrophobic due to the adsorption and/or absorption of the silicone oil lubricant on the surface. The lubricant persists on the surface so that it presents a very hydrophobic surface to subsequently applied lubricant. The lubricants of the present invention readily wet the oil soaked silicone lubricant surface as evidenced by the lubricants rapidly spreading on the surface without beading. […]
A useful test to determine the spreading ratios of the lubricants of the present invention is to compare spreading on a standard polybutene surface in a Petri dish. In this test, a drop of 50μ of the composition to be measured is applied to a polybutene surface in a Petri dish and after 30 seconds the linear movement of the liquid is measured by taking the average diameter of the substantially circular liquid. Pure water has been measured to have a diameter of about 10 mm. […]
The compositions prepared above were diluted at a ratio of 1 part lubricant to 200 parts water. […] The spreading ratio of the lubricant was measured using the test as described above. […]

## heptamethyl trisiloxane with a hydroxy terminated polyethyleneoxide pendant group [Silwet® L-7608]
  movement of the drop (average diameter of the liquid) after 30 seconds: 110 mm
